Converted amounts (≈) assume the structure as drawn. “Also recorded” adds a separate entry of the source.
Legend:
Z. tritici cells [1] = type: cell-based, Zymoseptoria tritici
Z. tritici mitochondria [2] = type: cell-based, Zymoseptoria tritici
cellular respiration = test: Cellular oxygen consumption in cell suspensions; type: cell-based, U. maydis
[3] = system: Z. tritici (strain IPO323); parameters: species or system Zymoseptoria tritici on wheat; conditions: in vivo
Z. tritici [4] = type: cell-based, Zymoseptoria tritici
Daphnia magna [5] = test: Daphnia magna 24 h toxicity (motility, escape response as indicator of mortality); type: in vivo
Description: Next, water fleas were treated for 24 h with various concentrations of all three SACCs and their motility behaviour and “escape response” monitored as an indicator of mortality. […] Higher amounts of both C18 SACCs eventually killed Daphnia magna, with C18-TMA+ being 1.8-times more toxic than C18-DMS+.

[6] = system: C109 human skin fibroblasts; test: Mitochondrial organization in human skin fibroblasts; type: cell-based
Description: The effects on mitochondria may account for the fungal specificity of C12-G+. To test this, mammalian skin C109 fibroblasts were treated with C12-G+ and monitored for its effect on mitochondrial shape and membrane potential.
Low toxicity to humans and in the environment is an important requirement for fungicides. The toxicity of C12-TPP+, C18-TMA+ and C18-DMS+ was therefore tested on C109 human skin fibroblasts. Mitochondrial organization and mitochondrial membrane potential were monitored after incubating with various concentrations of the compounds.

U. maydis [7] = test: Growth inhibition on agar plates supplemented with compound; type: cell-based, Ustilago maydis
Daphnia magna [8] = test: Daphnia magna 30 minute treatment, TMRM mitochondrial potential; type: in vivo; conditions: 1 μg/ml for 30 minutes
Description: In addition, the toxicity of C12-G+, C18-TMA+ and C18-DMS+ on the water flea Daphnia magna was investigated. This freshwater crustacean is well-established as a reporter organism in toxicity tests. Firstly, Daphnia magna was treated with 1 μg/ml of C12-G+, C18-TMA+ and C18-DMS+ for 30 minutes, followed by visualization of the mitochondrial potential by TMRM.

Z. tritici [9] = test: Growth inhibition on agar plates supplemented with compound; type: cell-based, Zymoseptoria tritici
[10] = system: C109 human skin fibroblasts; test: Mitochondrial membrane potential in human skin fibroblasts
rice leaves [11] = test: Early plant defence response, diaminobenzidine (DAB) staining of H2O2; type: in vivo; conditions: 150 μg/ml SACC (salicylic acid 15 mM), 6 h
M. oryzae (strain Guy11) = type: in vivo, Magnaporthe oryzae on rice; conditions: rice; for protection at high concentrations: M. oryzae, high concentrations (75 and 100 μg/ml); for disease symptom development: sprayed 24 h before M. oryzae, 4 days, concentration-dependent
Z. tritici cells [12] = test: Programmed cell death, CaspACE FITC-VAD-FMK with propidium iodide co-staining; type: cell-based, Zymoseptoria tritici; conditions: 24 h treatment
[13] = system: U. maydis plasma membrane; test: Plasma membrane integrity with GFP-Sso1 marker (patches, photo-bleaching recovery); type: cell-based, Ustilago maydis
rice leaves [14] = conditions: in vivo
U. maydis [15] = test: Plasma membrane potential, DiBAC4(3) staining; type: cell-based, Ustilago maydis; conditions: high concentrations
Description: (§1) Drug-induced leakage of ions from the cell was then determined by visualizing alterations of the membrane potential in C12-G+-treated cells, using the voltage-sensitive fluorescent probe bis-(1,3-dibutylbarbituric acid) trimethine oxonol, DiBAC4(3), which only stains depolarised cells. […] Therefore, the effect on the plasma membrane is most likely not the primary MoA of C12-G+ in fungi.

[16] = system: Z. tritici plasma membrane; type: cell-based, Zymoseptoria tritici
U. maydis [17] = test: Live/dead staining in liquid culture; type: cell-based, Ustilago maydis
U. maydis mitochondria = test: Mitochondrial depolarisation, TMRM staining; type: cell-based, Ustilago maydis; conditions: low amounts
Z. tritici mitochondria [18] = type: cell-based, Zymoseptoria tritici; conditions: for mitochondrial depolarisation / inhibition of mitochondrial respiration: Z. tritici
Z. tritici [19] = test: Plasma membrane potential, DiBAC4(3) staining; type: cell-based, Zymoseptoria tritici; conditions: high concentrations
Description: as §1

wheat leaves = conditions: in vivo
C. albicans [20] = type: cell-based, Candida albicans
C. albicans [21] = type: cell-based, Candida albicans; remark: listed apart in the source
Candida glabrata = type: cell-based
U. maydis [22] = type: cell-based, Ustilago maydis
Z. tritici cells [23] = test: Programmed cell death, Annexin-V-fluorescein staining; type: cell-based, Zymoseptoria tritici
[24] = system: Candida glabrata mitochondria; type: cell-based
[25] = system: Candida albicans mitochondria; type: cell-based
C. glabrata = type: cell-based, Candida glabrata

Molecule: CCCCCCCCCCCC[S+](C)C [C12-DMS+, dodecyldimethylsulfonium]
- mROS levels (Z. tritici cells [1]): did not increase mROS levels
- EC50 on Z. tritici (mitochondrial fragmentation) (Z. tritici mitochondria [2]): 7.39 µg/mL

Molecule: CCCCCCCCCCCCNC(=N)N [C12-G+, dodecylguanidinium]
- cellular oxygen consumption (cellular respiration): inhibits cellular respiration
- disease symptom development [3]: Symptom development was inhibited
- protection at high concentrations [3]: does not fully suppress; also recorded: did not fully suppress infection
- cell viability (Z. tritici [4]; 30-45 minutes incubation, up to 100 μg/ml): most cells were still alive
- cells killed (Z. tritici [4]; after 1 h at 100 μg/ml): > 80%
- concentration that killed all Daphnia magna (Daphnia magna [5]): ~1000 ng/mL
- effect on mitochondrial organization ([6]; beyond 20 μg/ml): caused organelle fragmentation and swollen cristae
- effect on mitochondrial organization ([6]; concentrations up to 20 μg/ml): little effect on mitochondrial organization
- EC50, concentration at 50% inhibition of growth (U. maydis [7]): 2.3 µg/mL
- mitochondrial potential (TMRM) in Daphnia magna (Daphnia magna [8]): lost most signal
- motility of Daphnia magna (Daphnia magna [8]): did not affect the motility
- antimycin A-induced mROS in the presence of compound (Z. tritici cells [1]): significantly reduced
- mROS levels (Z. tritici cells [1]): decreased mROS concentrations; also recorded: significantly reduced mROS
- Z. tritici more sensitive than U. maydis (growth inhibition) (Z. tritici [9]): ~4 times
- EC50, concentration at 50% inhibition of growth (Z. tritici [9]; Z. tritici): 0.6 µg/mL
- effect on mitochondrial membrane potential ([10]; C109 fibroblasts): modest effect
- peroxide production / DAB reaction (plant defence) (rice leaves [11]): slight peroxide production
- protection at high concentrations (M. oryzae (strain Guy11)): does not fully suppress; also recorded: did not fully suppress infection
- disease symptom development (M. oryzae (strain Guy11)): Symptom development was inhibited
- early apoptotic cells (CaspACE FITC-VAD-FMK positive, propidium iodide negative) (Z. tritici cells [12]): Only a few apoptotic cells
- formation of GFP-Sso1 patches at the cell periphery ([13]; high concentrations): induced the formation of GFP-Sso1
- lateral mobility of GFP-Sso1 ([13]; ≥10 μg/ml): significantly reduced the mobility of GFP-Sso1
- chlorosis or necrosis (phytotoxicity) (rice leaves [14]): none of the SACCs induced chlorosis or necrosis
- number of depolarised cells (DiBAC4(3)) (U. maydis [15]): increased the number of depolarised cells
- EC50, effect on fungal plasma membrane ([16]; Z. tritici): 20 to 50 µg/mL
- lateral mobility of GFP-Sso1 ([16]; Z. tritici): this effect was not observed
- Z. tritici less sensitive than U. maydis (GFP-Sso1 patches) ([16]; at 50 μg/ml): ~2 times
- formation of GFP-Sso1 patches at the cell periphery ([16]; high concentrations, Z. tritici): induced the formation of GFP-Sso1
- cell viability (U. maydis [17]; 30-45 minutes incubation, up to 50 μg/ml): most cells were still alive
- killing (U. maydis [17]; after 1 h at 100 μg/ml): ~15%
- EC50 on Z. tritici (mitochondrial fragmentation) (Z. tritici mitochondria [2]): 6.63 µg/mL (≈ 29.2 µM)
- mitochondrial depolarisation (TMRM) (U. maydis mitochondria): depolarised mitochondria
- Z. tritici more sensitive than U. maydis (mitochondrial membrane potential) (Z. tritici mitochondria [18]): ~4 times
- number of depolarised cells (DiBAC4(3)) (Z. tritici [19]): had only little effect
- chlorosis or necrosis (phytotoxicity) (wheat leaves): none of the SACCs induced chlorosis or necrosis

Molecule: CCCCCCCCCCCC[N+](CC)(CC)CC [C12-TEA+, dodecyltriethylammonium]
- EC50 on Z. tritici (mitochondrial fragmentation) (Z. tritici mitochondria [2]): 2.38 µg/mL

Molecule: CCCCCCCCCCCC[N+](C)(C)C [C12-TMA+, dodecyltrimethylammonium]
- EC50 on Z. tritici (mitochondrial fragmentation) (Z. tritici mitochondria [2]): 3.85 µg/mL

Molecule: CCCCCCCCCCCC[P+](c1ccccc1)(c1ccccc1)c1ccccc1 [C12-TPP+, dodecyltriphenylphosphonium]
- EC, human mitochondrial organization ([6]; C109 fibroblasts): 5.62 µg/mL
- effect on human mitochondrial organization ([6]; C109 fibroblasts, various concentrations): little effect on human mitochondrial organization
- EC50, human mitochondrial respiration ([10]; C109 fibroblasts): 0.355 µg/mL
- EC50 on Z. tritici (mitochondrial fragmentation) (Z. tritici mitochondria [2]): 6.63 µg/mL
- mitochondrial depolarisation / inhibition of mitochondrial respiration (Z. tritici mitochondria [18]): showed significant inhibition of mitochondrial respiration

Molecule: C=C(C)[C@H]1Cc2c(ccc3c2O[C@@H]2COc4cc(OC)c(OC)cc4[C@@H]2C3=O)O1 [rotenone]
- mROS levels (Z. tritici cells [1]): decreased mROS levels
- more effective in decreasing mROS than C12-G+ and C18-TMA+ (Z. tritici cells [1]): 3-4 times

Molecule: O=C(O)c1ccccc1O [salicylic acid]
- peroxide production / DAB reaction (plant defence) (rice leaves [11]): brown colouring

Molecule: antimycin A
- mROS levels (Z. tritici cells [1]): increase of mROS

Molecule: octadecyldimethylsulfonium [C18-DMS+]
- mROS levels (C. albicans [20]): significantly induced
- killing (LIVE/DEAD staining) (C. albicans [21]): efficiently killed
- relative toxicity in C. albicans (C. albicans [21]): most toxic
- killing (LIVE/DEAD staining) (Candida glabrata): efficiently killed
- disease symptom development [3]: Symptom development was inhibited
- protection at high concentrations [3]: almost abolished symptom developments
- killing (LIVE/DEAD staining) (Z. tritici [4]; 12-14 h exposure, 10 μg/ml): efficiently killed
- effect on Daphnia magna (Daphnia magna [5]; at ~1 μg/ml): little effect at this concentration
- human mitochondria less sensitive (mitochondrial morphology) ([6]; printed as compared to C12-G+): ~29 times
- mROS levels (U. maydis [22]): significantly induced
- Annexin-V-fluorescein membrane-associated fluorescence in apoptotic cells (Z. tritici cells [23]): only found in C18-DMS+-treated cells
- mitochondrial potential (TMRM) in Daphnia magna (Daphnia magna [8]): little or no effect on mitochondrial potential
- motility of Daphnia magna (Daphnia magna [8]): did not affect the motility
- mROS levels (Z. tritici cells [1]): significantly induced; also recorded: induced mROS production further
- mROS levels with complex I inhibitor rotenone (Z. tritici cells [1]): did not increase mROS levels
- higher specificity for fungi than for humans (inhibition of mitochondrial respiration) ([10]; Z. tritici vs human cells): ~53 times
- peroxide production / DAB reaction (plant defence) (rice leaves [11]): much stronger DAB reaction
- protection at high concentrations (M. oryzae (strain Guy11)): almost abolished symptom developments
- disease symptom development (M. oryzae (strain Guy11)): Symptom development was inhibited
- mitochondrial potential [24]: reduce the mitochondrial potential
- early apoptotic cells (CaspACE FITC-VAD-FMK positive, propidium iodide negative) (Z. tritici cells [12]): significant increase in early apoptotic cells
- chlorosis or necrosis (phytotoxicity) (rice leaves [14]): none of the SACCs induced chlorosis or necrosis
- mitochondrial potential [25]: reduce the mitochondrial potential
- EC50 on Z. tritici (mitochondrial fragmentation) (Z. tritici mitochondria [2]): 1.72 µg/mL
- mitochondrial depolarisation / inhibition of mitochondrial respiration (Z. tritici mitochondria [18]): showed significant inhibition of mitochondrial respiration
- mROS levels (C. glabrata): significantly induced
- chlorosis or necrosis (phytotoxicity) (wheat leaves): none of the SACCs induced chlorosis or necrosis

From patent US12635689B2, “Antifungal compositions” (priority 2019, dated 2026)
